# In patent publication US5484772A, “Antithrombotic agents” (Eli Lilly and Company, priority 1994, dated 1996):
# Experiments:
# Type in all cases: biochemical
# human thrombin = human thrombin (Homo sapiens, UniProt P00734); test: Thrombin amidase inhibition, chromogenic substrate (Kass); conditions: apparent association constant, mean over a range of concentrations; Hydrochloride
# Experimental: The assay is carried out by mixing 50 μl buffer (0.03M Tris, 0.15M NaCl, pH 7.4), 25 μl of human thrombin solution (purified human thrombin, Enzyme Research Laboratories, South Bend, Ind., at 8 NIH units/ml) and 25 μl of test compound in a solvent (in 50% aqueous methanol, v:v). Then 150 μl of an aqueous solution of the chromogenic substrate (at 0.25 mg/ml) are added and the rates of hydrolysis of the substrate are measured by monitoring the reactions at 405 nm for the release of p-nitroaniline. Standard curves are constructed by plotting free thrombin concentration against hydrolysis rate. The hydrolysis rates observed with test compounds are then converted to free thrombin values in the respective assays by use of the standard curves. The bound thrombin (bound to test compound) is calculated by subtracting the amount of free thrombin observed in each assay from the known initial amount of thrombin used in the assay. The amount of free inhibitor in each assay is calculated by subtracting the number of moles of bound thrombin from the number of moles of added inhibitor (test compound).
# The Kass value is the hypothetical equilibrium constant for the reaction between thrombin and the test compound (I). [formula] Kass is calculated for a range of concentrations of test compounds and the mean value is reported in units of liter per mole.
# t-PA = biological target: T1, t-PA (Homo sapiens, UniProt P00750); test: t-PA amidase inhibition, chromogenic substrate (Kass); conditions: apparent association constant; Hydrochloride
# T1 construct: purchased American Diagnostica, Greenwich, Conn
# T1 sequence (P00750 36-562): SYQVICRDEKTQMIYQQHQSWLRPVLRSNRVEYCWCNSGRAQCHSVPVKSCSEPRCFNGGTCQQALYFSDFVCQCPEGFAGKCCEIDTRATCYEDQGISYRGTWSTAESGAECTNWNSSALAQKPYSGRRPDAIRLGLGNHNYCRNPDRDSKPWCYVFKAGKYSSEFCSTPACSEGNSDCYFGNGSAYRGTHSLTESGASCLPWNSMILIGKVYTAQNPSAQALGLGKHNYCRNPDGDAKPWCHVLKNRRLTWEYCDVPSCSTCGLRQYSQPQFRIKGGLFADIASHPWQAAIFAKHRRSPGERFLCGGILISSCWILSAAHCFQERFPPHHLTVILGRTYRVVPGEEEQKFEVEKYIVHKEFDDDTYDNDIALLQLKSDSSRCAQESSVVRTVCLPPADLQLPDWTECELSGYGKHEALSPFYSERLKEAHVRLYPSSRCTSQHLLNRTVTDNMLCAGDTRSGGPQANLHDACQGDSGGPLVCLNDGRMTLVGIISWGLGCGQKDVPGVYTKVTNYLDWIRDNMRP
# Human plasma [1] = test: Human plasma anticoagulation, prothrombin time (PT); conditions: concentration required to double PT, linear extrapolation, Hydrochloride
# Experimental: (§1) Dog plasma and rat plasma are obtained from conscious mixed-breed hounds (either sex, hazelton-LRE, Kalamazoo, Mich., U.S.A.) or from anesthetized male Sprague-Dawley rats (Harlan Sprague-Dawley, Inc., Indianapolis, Ind., U.S.A.) by venipuncture into 3.8 percent citrate. Fibrinogen is prepared from in-date ACD human blood as the fraction I-2 according to previous procedures and specifications. Smith, Blochem. J., 185, 1-11 (1980); and Smith, et al., Biochemistry, 11, 2958-2967 (1972). Human fibrinogen is also purchased as 98 percent pure/plasmin free from American Diagnostica, Greenwich, Conn. Coagulation reagents ACTIN, Thromboplastin, and Human plasma are from Baxter Healthcare Corp., Dade Division, Miami, Fla. Bovine thrombin from Parke-Davis (Ann Arbor, Mich.) is used for coagulation assays in plasma.
# (§2) Coagulation assay procedures are as previously described. Smith, et al., Thrombosis Research, 50, 163-174 (1988). […] The prothrombin time (PT) is measured by adding 0.05 ml saline and 0.05 ml Thromboplastin-C reagent to 0.05 ml test plasma. The activated partial thromboplastin time (APTT) is measured by incubation of 0.05 ml test plasma with 0.05 ml Actin reagent for 120 seconds followed by 0.05 ml CaCl2 (0.02M). The thrombin time (TT) is measured by adding 0.05 ml saline and 0.05 ml thrombin (10 NIH units/ml) to 0.05 ml test plasma. […]
# Human plasma [2] = test: Human plasma anticoagulation, thrombin time (TT); conditions: concentration required to double thrombin time, linear extrapolation, Hydrochloride
# Experimental: as §1, §2
# Human plasmin = biological target: T2, Human plasmin (Homo sapiens, UniProt P00747); test: Plasmin amidase inhibition, chromogenic substrate (Kass); conditions: apparent association constant; Hydrochloride
# T2 construct: Human plasmin is purchased from Boehringer Mannheim; purchased Boehringer Mannheim, Indianapolis, Ind
# T2 sequence (P00747 581-810 limits assumed): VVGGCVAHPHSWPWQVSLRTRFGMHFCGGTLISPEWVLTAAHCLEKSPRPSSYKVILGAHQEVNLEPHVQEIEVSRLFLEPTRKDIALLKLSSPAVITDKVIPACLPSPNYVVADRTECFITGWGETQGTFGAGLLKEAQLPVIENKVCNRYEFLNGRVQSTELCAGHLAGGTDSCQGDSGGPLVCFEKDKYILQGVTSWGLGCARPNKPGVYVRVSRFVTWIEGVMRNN
# T2 sequence (P00747 97-580 limits assumed): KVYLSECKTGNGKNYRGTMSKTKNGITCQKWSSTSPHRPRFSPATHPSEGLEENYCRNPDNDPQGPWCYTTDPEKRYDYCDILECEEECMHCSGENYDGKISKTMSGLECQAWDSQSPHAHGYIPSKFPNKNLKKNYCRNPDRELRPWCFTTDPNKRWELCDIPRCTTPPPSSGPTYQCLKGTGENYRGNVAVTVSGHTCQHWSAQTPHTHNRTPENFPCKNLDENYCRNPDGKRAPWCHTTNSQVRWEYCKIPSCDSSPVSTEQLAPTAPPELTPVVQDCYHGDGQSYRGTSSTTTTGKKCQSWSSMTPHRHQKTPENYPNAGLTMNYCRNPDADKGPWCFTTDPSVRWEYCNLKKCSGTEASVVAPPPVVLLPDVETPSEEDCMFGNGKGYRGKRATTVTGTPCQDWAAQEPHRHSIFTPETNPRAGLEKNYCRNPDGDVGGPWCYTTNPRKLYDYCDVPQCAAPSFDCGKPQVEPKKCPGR
# Bovine trypsin = biological target: T3, Bovine trypsin (Bos taurus, UniProt P00760); test: Trypsin amidase inhibition, chromogenic substrate (Kass); conditions: apparent association constant; Hydrochloride
# T3 construct: purchased Worthington Biochemicals, Freehold, N.J
# T3 sequence (P00760 24-246): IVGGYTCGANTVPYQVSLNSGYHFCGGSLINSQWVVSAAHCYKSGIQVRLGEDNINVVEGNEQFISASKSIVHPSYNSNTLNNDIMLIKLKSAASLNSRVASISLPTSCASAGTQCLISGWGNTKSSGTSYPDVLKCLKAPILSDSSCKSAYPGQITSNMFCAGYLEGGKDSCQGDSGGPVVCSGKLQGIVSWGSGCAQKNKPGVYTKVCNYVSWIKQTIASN
# Human plasma [3] = test: Human plasma anticoagulation, activated partial thromboplastin time (APTT); conditions: concentration required to double APTT, linear extrapolation, Hydrochloride
# Experimental: as §1, §2
# Human factor Xa = biological target: T4, Human factor Xa (Homo sapiens, UniProt P00742); test: Factor Xa amidase inhibition, chromogenic substrate (Kass); conditions: apparent association constant; Hydrochloride
# T4 construct: Human factors X, Xa, IXa, XIa, and XIIa are purchased; purchased Enzyme Research Laboratories, South Bend, Ind
# T4 sequence (P00742 235-488 limits assumed): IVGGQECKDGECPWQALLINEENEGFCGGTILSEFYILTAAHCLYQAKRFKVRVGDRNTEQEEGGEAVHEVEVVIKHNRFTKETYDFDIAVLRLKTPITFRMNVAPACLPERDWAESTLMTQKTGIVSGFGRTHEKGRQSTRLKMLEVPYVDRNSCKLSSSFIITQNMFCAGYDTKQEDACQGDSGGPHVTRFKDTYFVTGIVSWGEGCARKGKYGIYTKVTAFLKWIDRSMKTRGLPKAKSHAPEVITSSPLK
# T4 sequence (P00742 41-179 limits assumed): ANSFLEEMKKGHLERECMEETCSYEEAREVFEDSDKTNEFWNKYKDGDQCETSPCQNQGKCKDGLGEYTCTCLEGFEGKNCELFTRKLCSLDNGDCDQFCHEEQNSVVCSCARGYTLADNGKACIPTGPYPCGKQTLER
Structure (SMILES),Kass Human Thrombin (human thrombin) [L/mol × 10^6],Kass t-PA (t-PA) [L/mol × 10^6],2 × Clotting time PT (Human plasma [1]),2 × Clotting time TT (Human plasma [2]) [ng/mL],Kass Plasmin (Human plasmin) [L/mol × 10^6],Kass Trypsin (Bovine trypsin) [L/mol × 10^6],2 × Clotting time APTT (Human plasma [3]),Kass Xa (Human factor Xa) [L/mol × 10^6]
"CCOC(=O)N[C@@H](Cc1ccccc1)C(=O)N1CCC[C@@]1(C)C(=O)N[C@H](C=O)CCCNC(=N)N.Cl [Example 5, N-Ethoxycarbonyl-L-phenylalanyl (αmethyl)-L-prolinyl-L-arginine Aldehyde Hydrochloride]",75,0.00079,"2,200 ng/mL",48,0.059,2.4,"2,500 ng/mL",0.044
"CCOC(=O)NC(CC)(Cc1ccccc1)C(=O)N1CCC[C@H]1C(=O)N[C@H](C=O)CCCNC(=N)N.Cl (stereo partly drawn) [Example 13, N-Ethoxycarbonyl-L-phenylalanyl (αethyl)-L-prolinyl-L-arginine Aldehyde Hydrochloride]",57,0.002,"3,300 ng/mL",93,0.12,4.9,,0.036
